# Assays:
# Assay type in all cases: cell-based
# Oocyte [1] = test: Inhibition of human aquaporin 4 M23 isoform expressed in Xenopus laevis oocytes at 20 uM
# [2] = (§1) Inhibition of human aquaporin 4 M23 isoform expressed in Xenopus laevis oocytes; conditions: oocyte
# Oocyte [3] = test: as §1
SMILES,inhibition (Oocyte [1]) [%],IC50 [2] [µM],Imax (Oocyte [3]) [%]
CC/C(=C(\c1ccccc1)c1ccc(OCCN(C)C)cc1)c1ccccc1,71,,
Oc1cnc(Nc2nc3ccccc3o2)[nH]1,44,,
O=C(Nc1ccccc1)c1cccnc1,26,,
CN(C)CCc1c[nH]c2ccc(Cn3cncn3)cc12 [RIZATRIPTAN],52,2.9,54
NC(=O)c1nc[nH]c1C(N)=O,23,,
NS(=O)(=O)c1cc(Cl)sc1Cl,11,,
CCCC(C)C1(CC)C(=O)NC(=O)NC1=O (centres undefined),9,,
O=C(Nc1nncs1)c1cccnc1,67,3.1,73
NC(=O)NCCC[C@H](N)C(=O)O,0,,
OCC(O)COCc1ccccc1 (centres undefined),11,,
COc1ccccc1OCC(O)CO (centres undefined),34,,
CNS(=O)(=O)Cc1ccc2[nH]cc(CCN(C)C)c2c1 [SUMATRIPTAN],54,11,52
N[C@@H]1CONC1=O,3,,
O=S(=O)(Cc1ccccc1)Nc1nccs1,45,,
CN1CCc2cccc3c2[C@H]1Cc1ccc(O)c(O)c1-3,40,,
CC(C)NC[C@H](O)COc1cccc2ccccc12,26,,
NS(=O)(=O)c1ccc(Cl)s1,18,,
O=C(Nc1nccs1)c1cccnc1,30,,
